Key:
[1] = target: T1, Pin1 WW domain (full-length 15N-Pin1) (Homo sapiens, UniProt Q13526); experiment: NMR 15N-1H HSQC chemical shift perturbation titration; format: binding; details: global two-state fit of WW domain NH CSPs; 295 K; pH 6.6; 48.6 μM Pin1; read-out: NMR CSP Kd
T1 construct: Full-length Pin1 was overexpressed and purified as described previously; made in house
Description: The ELEBA was developed as a method for high-throughput screening, rather than as an absolute measure of binding affinity. […] Since L1 is linked to the plate, ELEBA is not to be taken as a direct measurement of binding affinity.[32] We undertook NMR measurements to determine the affinity and location of binding directly by NMR to distinguish between binding to the catalytic and WW domains of Pin1. Standard NMR backbone ^15N–^1H chemical shifts were mapped onto existing assignments of Pin1 by recording 2-D ^15N–^1H HSQC spectra of full-length ^15N-Pin1 at different ligand concentrations (Figures S2–S5). NH cross-peaks showing ligand-induced chemical shift perturbations (CSPs) identified residues affected by binding. The largest magnitude CSPs were localized to the WW domain.
Full-length Pin1 was overexpressed and purified as described previously.[47] The final NMR buffer conditions were 30 mM imidazole-D4, pH 6.6, with 30 mM NaCl, 0.03% NaN3, 5 mM DTT-d10, and 90%H2O/10%D2O. The ligand stock solutions included 2.4 and 24 mM for 1{18,l}; 2.4 and 16 mM for trans-1{2,d}; 2.4 and 12 mM for cis-1{2,d}; 2.4 mM and 12 mM for 1{2,n}. The stock concentrations were confirmed by standard 1-D ^1H NMR of the samples diluted in the buffer described above.
The NMR titration spectra were recorded at a nominal temperature of 295 K, on a Bruker Avance 700 MHz (16.4 T) spectrometer equipped with a cryogenically cooled TCI probe. Sequential resonance assignments for wild type Pin1 were from our prior publications.[34],[35],[46]−[48] Data processing and cross-peak analysis used Topspin 1.3 and 2.1 (Bruker Biospin, Inc.), and Sparky (T. D. Goddard and D. G. Kneller, SPARKY 3, University of California, San Francisco). The initial Pin1 concentration (apo-Pin1) was 48.6 μM. We recorded 2-D ^15N–^1H HSQC spectra per Mori et al.[51] after each addition of ligand to get NH binding isotherms (NH chemical shift perturbations as a function of the total ligand concentration). Each 2-D data set consisted of 128 FIDs (64 complex points), with 16 scans per FID and a recycle time of 1s. The ^1H^N spectral width was 15 ppm, centered at 4.703 ppm; the ^15N spectral width was 35.24 ppm, centered at 118 ppm. The binding-induced ^15N–^1H chemical shift perturbations (CSPs) were calculated by eq 3. [drawing 4] 3 [35]
The ΔδH and ΔδN terms are the amide ^1H and ^15N chemical shift differences relative to isolated Pin1. To estimate the ligand Kd values for WW domain binding, we globally fitted WW domain NH binding isotherms to the expression for the bound protein fraction in a standard two-state binding equilibrium, P + L ⇌ PL, as described in our previous Pin1 studies.[35] The monitored WW domain residues included K13, R14, M15, S16, G20, R21, A31, S32, Q33, W34, and E35. […]

[2] = target: T2, Pin1 WW domain (Pin1–HRP) (Homo sapiens, UniProt Q13526); experiment: ELEBA competitive binding Kd-obs determination; details: for Kd: competitive with plate-linked L1, concentration at which % Pin1-HRP bound to the plate is 50%, purified resynthesized ligands, 200 pM Pin1–HRP
T2 construct: purchased R&D Systems
T2 sequence (Q13526 whole entry, the tested form may be a part): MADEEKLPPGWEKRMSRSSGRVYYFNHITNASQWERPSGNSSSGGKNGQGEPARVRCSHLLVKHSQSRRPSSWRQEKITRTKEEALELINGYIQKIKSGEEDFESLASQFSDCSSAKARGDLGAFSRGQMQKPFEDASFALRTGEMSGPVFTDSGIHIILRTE
Protocol: Concentration-dependent ELEBAs were performed for ligands 1{2, d}, 1{18, l}, cis-1{2, n}, and trans-1{2, n} obtained by large-scale manual solid-phase synthesis and purification. The cis- and trans-isomers of 1{2, d} were separated by HPLC. The two diastereomers (∼ 1:1) of 1{18, l} were used as a mixture because they were inseparable in our systems. Competitive dissociation constants (Kd-obs) were measured by ELEBA (Figure 4). Kd-obs values were normalized to percentage Pin1–HRP bound to the plate-linked ligand by setting the lowest concentration of competitive ligand in solution to 100% binding.[32]Kd-obs is defined as the concentration of a ligand where the % Pin1-HRP bound to the plate is 50%.
(§1) The Pin1 WW domain ligand, Fmoc–VPRpTPVGGGK–NH2, (100 μL/well, 245 μM stock solution) was covalently attached to a 96-well plate through the ε-amino group of the Lys side chain at pH 11.0, as published.[44] Ligands were dissolved in DMSO at stock concentrations of ca. 50 mM by weight. Competitive binding with plate-linked Fmoc–VPRpTPVGGGK–NH2L1 of pSer–Pro dipeptides was measured at ca. 600 μM for primary screening. In the primary assays, all library members were screened with the crude products. 1{1-21, d} were measured as mixtures of cis- and trans-isomers. Library members synthesized from racemic reagents, such as 1{1-21, c}, 1{1-21, l}, 1{1-21, q}, 1{3, a-q} and 1{8, a-q} were measured as diastereomeric mixtures. The library members were dissolved in DMSO as stock solutions with a concentration of about 37 mM based on estimated yields. The DMSO stock solution of each compound (4 μL) was added into a solution of recombinant Pin1–HRP (R&D Systems) in a PBS buffer with 2% BSA (pH = 7.3). DMSO (4 μL) was used as a negative control. The final volume of the solution was 250 μL, the final concentration of Pin1–HRP was 200 pM, and the estimated final compound concentration was 590 μM. The resulting solution was preincubated for 30 min at ambient temperature, and was added into two wells (100 μL each, for assay in duplicate) of the ligand-linked plate. The solutions were incubated for another 1 h. The solutions were removed by inverting and shaking the plate, and the plate was washed with buffer ([…], and 0.05% Tween 20 in PBS at pH 7.3) three times. A 1:1 solution of hydrogen peroxide and 3,3,5,5′-tetramethylbenzidine (100 μL) was added into each plate well, and incubated in the dark for 20 min. A 2N H2SO4 solution (50 μL) was added to each well to quench the reaction, and the absorbance of was determined at 450 nm. The percentage of Pin1–HRP bound to the plate (% binding) was calculated by eq 1. To calculate the absorbance of a plate well in eq 1, the blank ligand-linked plate was predetermined at the same wavelength, and the absorbance of the blank well was subtracted from the absorbance of the same well containing the final solution. [drawing 2] 1
The competitive dissociation constants, Kd-obs, of cis-1{2, d}, trans-1{2, d}, 1{2,o}, and 1{18, m} were determined by ELEBA after the large-scale synthesis, HPLC purification, and quantification. The final concentrations of each compound were: 2.0, 10, 30, 50, 100, 200, 300, 500, 700, 1000, and 2000 μM. Ligands stock concentrations were 88 mM by weight, and the final concentrations for competitive dissociation constants (Kd) were 2000, 1000, 700, 500, 300, 200, 100, 50, 30, 10, and 5.0 μM. […]

[3] = target: T2, Pin1 WW domain (Pin1–HRP); experiment: ELEBA secondary binding assay; details: 270 μM; crude product; DMSO = 100%
Protocol: (§2) The library was screened by the ELEBA we reported previously.[44] The crude products resulting from diethyl ether precipitation were used for the primary and secondary ELEBA without additional purification. The concentrations of the crude products were estimated based on quantitative yields; actual concentrations were thus lower, depending on yield and purity. The library products were dissolved in DMSO as stock solutions for assays. […] Recombinant human Pin1 conjugated to horseradish peroxidase (Pin1–HRP) was used in the binding assays.[44] Fmoc-VPRpTPVGGGK-NH2 L2 was used as the positive control and DMSO was used as the negative control on each plate. The percent of Pin1–HRP bound to the plate was calculated by normalizing the binding with DMSO to be 100%. In the primary assays (Figure S1), 14 of the best library members were identified: 1{2,d}, 1{18,f}, 1{20,f}, 1{10, l}, 1{13, l}, 1{18, l}, 1{20, l}, 1{10, n}, 1{18, n}, 1{19, n}, 1{2, n}, 1{20, n}, 1{14, o}, 1{3, o}. In the secondary assay, these ligands were measured again at 270 μM, and three hits, 1{2, d}, 1{18, l} and 1{2, n}, were chosen for further analysis (Figure 3).
The best ligands from each group that blocked Pin1 WW domain binding of HRP-Pin1 bound to plate were reassayed at 270 μM to identify the best ligands through the same procedures above.

[4] = target: T2, Pin1 WW domain (Pin1–HRP); experiment: ELEBA primary screening assay of the library; format: binding; details: separate plate of groups A and B (L2 control 85.0443); crude library members; DMSO = 100%; mean of N = 2
Protocol: as §2
as §1, with “2] 1 […]” for “2] 1”
The Fmoc-Ser(2- […]
cyanoethylphosphate)-OH product was cleaved from the resin with TFA. 1H NMR indicated the presence of the Fmoc group, implying that the substrate was successfully attached to the resin (data not shown). To develop the coupling methods, 2-(2-naphthyl)ethylamine and propionic acid were reacted with the pSer–Pro resin. The resulting propanoyl-pSer–Pro–(2-(2-naphthyl)ethyl)-amide (1H NMR below) was excluded from the library assays.
Figure S1 (following pages). Ligands (group A – O) were screening using ELEBA at ca. 266 µM.
Fmoc-VPRpTPVGGGK-NH2 L2 was used as positive control at 76-87 µM from stock solutions […]
of 4.3-4.8 mM. […]

Pin1 WW domain = target: Pin1 WW domain; design: method as in PMID 10932246; details: read-out: affinity for the WW domain; cited from earlier work
full-length Pin1 = target: full-length Pin1; design: method as in PMID 10932246; details: read-out: affinity for full-length Pin1; cited from earlier work
Pin1 catalytic domain = system: Pin1 catalytic domain; design: method as in PMID 10932246; details: cited from earlier work

T1 sequence (Q13526 whole entry, the tested form may be a part): as above

Kd [1] | Kd [2] | Compound | other results
208 ± 6 µM | 206 ± 3 µM | CC(C)(Oc1ccc(Cl)cc1)C(=O)NC(COP(=O)(O)O)C(=O)N1CCCC1C(=O)Nc1ccc2[nH]ncc2c1 (centres unmarked) [1{2, n}] | –
105 ± 9 µM | 130 ± 3 µM | COc1ccc2c(c1)C(CC(=O)NC(COP(=O)(O)O)C(=O)N1CCCC1C(=O)NNC(=O)c1ccoc1)CC2=O (centres unmarked) [1{18, l}] | –
– | – | O=C(/C=C/c1c[nH]cn1)N[C@@H](COP(=O)(O)O)C(=O)N1CCC[C@H]1C(=O)N1CCOCC1 [1{20,b}] | ELEBA secondary screen, % of baseline activity [3]: ca. 140%; % of Pin1-HRP bound to plate-linked ligand [4]: 76.1089%
95 ± 6 µM | 263 ± 6 µM | O=C(C=CSc1ccccc1)NC(COP(=O)(O)O)C(=O)N1CCCC1C(=O)Nc1ccc2[nH]ncc2c1 (stereo not drawn) [cis-1{2, d}] | relative potency cis vs trans isomer ([2]; ELEBA Kd-obs of cis-1{2, d} vs trans-1{2, d}): about three times as potent as trans-1{2, d}
214 ± 25 µM | 820 ± 6 µM | O=C(C=CSc1ccccc1)NC(COP(=O)(O)O)C(=O)N1CCCC1C(=O)Nc1ccc2[nH]ncc2c1 (stereo not drawn) [trans-1{2, d}] | –
– | – | Fmoc–VPRpTPVGGGK–NH2 [Compound L1] | Kd (Pin1 WW domain): 7.7 µM; Kd (full-length Pin1): 4.9 µM; binding to the catalytic domain (Pin1 catalytic domain): no binding

— paper PMC11542186, “Pin1 WW Domain Ligand Library Synthesized with an Easy Solid-Phase Phosphorylating Reagent” (Biochemistry, 2024)
